Assay results from patent publication US9801855B2, “Nanocrystalline solid dispersion compositions and process of preparation thereof” (NATIONAL INSTITUTE OF PHARMACEUTICAL EDUCATION AND RESEARCH …, priority 2012, dated 2017).

Assays:
[1] = Dissolution of powder and dispersion in 900 ml of 100 mM pH 6.8 phosphate buffer at 100 rpm; format: physicochemical; conditions: 60 mg equivalent
Procedure: • i. 2 gm of hesperetin was dissolved in 150 ml of methanol • ii. 2 gm of mannitol was dissolved in 50 ml of distilled water. • iii. Aqueous mannitol solution was added to methanolic solution of hesperetin. The solution was spray dried using following parameters (Table 10). • iv. DSC and MDSC indicated the crystalline nature of hesperetin in the dispersion. The crystallite size measured from powder X-ray diffraction peak broadening (FIG. 14) by Scherrer equation was 141.06 nm. • v. The dissolution profiles of hesperetin powder and dispersion in 900 ml of 100 mM pH 6.8 phosphate buffer at 100 rpm are presented in Table 11. 60 mg equivalent of hesperetin as powder and dispersion were taken for dissolution studies. • i. 2 gm of Naringenin was dissolved in 150 ml of methanol • ii. 2 gm of mannitol was dissolved in 50 ml of distilled water. • iii. Aqueous mannitol solution was added to methanolic solution of naringenin. The solution was spray dried using following parameters (Table 12). • iv. DSC and MDSC indicated the crystalline nature of naringenin in the dispersion. The crystallite size measured from powder X-ray diffraction peak broadening (FIG. 15) by Scherrer equation was 210.63 nm. • v. The dissolution profiles of naringenin powder and dispersion in 900 ml of 100 mM pH 6.8 phosphate buffer at 100 rpm are presented in Table 13. 60 mg equivalent of naringenin as powder and dispersion were taken for dissolution studies.

in vivo = conditions: female, SD, rat, po, 250 mg/kg
[2] = Dissolution of curcumin powder and dispersion in fasted state simulated gastric fluid; format: physicochemical; conditions: fasted state simulated gastric fluid pH 1.6, 37° C., 100 rpm, 25 mg equivalent
Procedure: • i. 2 gm of curcumin and 2 gm of stearic acid were dissolved in 200 ml of acetone. • ii. The solution was spray dried using following parameters (Table 1). • iii. DSC and MDSC indicated the crystalline nature of curcumin in the dispersion. The crystallite size measured from powder X-ray diffraction peak broadening by Scherrer equation was 398.6 nm. • iv. Fasted state simulated gastric fluid contained sodium taurocholate (80 μM), lecithin (20 μM), pepsin (0.1 mg/ml), sodium chloride (34.2 mM), sodium lauryl sulphate (0.05% w/v) and hydrochloric acid (q.s. pH 1.6). Samples equivalent to 25 mg of CRM were added into 900 ml dissolution medium and incubated at 37±0.5° C. at 100 rpm.

O=C1C[C@@H](c2ccc(O)cc2)Oc2cc(O)cc(O)c21 [Naringenin powder, naringenin]
% Release ([1]; 0 min): 1.60% | % Release ([1]; 3 min): 5.84% | % Release ([1]; 5 min): 9.54% | % Release ([1]; 10 min): 11.52% | % Release ([1]; 15 min): 17.32% | % Release ([1]; 30 min): 23.34% | % Release ([1]; 60 min): 26.25% | % Release ([1]; 120 min): 25.14%

COc1ccc([C@@H]2CC(=O)c3c(O)cc(O)cc3O2)cc1O [Hesperetin powder, hesperetin]
% Release ([1]; 0 min): 0.00% | % Release ([1]; 3 min): 1.25% | % Release ([1]; 5 min): 3.06% | % Release ([1]; 10 min): 2.15% | % Release ([1]; 15 min): 1.06% | % Release ([1]; 30 min): 1.48% | % Release ([1]; 60 min): 3.74% | % Release ([1]; 120 min): 7.47%

COc1cc(/C=C/C(=O)CC(=O)/C=C/c2ccc(O)c(OC)c2)ccc1O [Control, curcumin]
AUC(0-inf) (in vivo): 76.2 ng·h/mL | Cmax (in vivo): 58.1 ng/mL | Tmax (in vivo): 0.6 ± 0.1 h | half-life (in vivo): 1.4 ± 0.3 h

COc1cc(/C=C/C(=O)CC(=O)/C=C/c2ccc(O)c(OC)c2)ccc1O [Curcumin powder, curcumin]
% Release ([2]; 5 min): 10.8% | % Release ([2]; 10 min): 15.0% | % Release ([2]; 15 min): 15.4% | % Release ([2]; 20 min): 15.1% | % Release ([2]; 30 min): 15.1% | % Release ([2]; 40 min): 15.2% | % Release ([2]; 60 min): 15.0% | % Release ([2]; 80 min): 15.2% | % Release ([2]; 100 min): 15.6% | % Release ([2]; 120 min): 15.3%
